From article PMC9191229, “Molecular and Biochemical Analysis of Duplicated Cytosolic CuZn Superoxide Dismutases of Rice and in silico Analysis in Plants” (Frontiers in Plant Science, 2022)

What was measured:
[1] = test system: T1, OsCSD4; experiment: SOD activity, NBT reduction assay (NADH/PMS), A560; assay type: biochemical, Oryza sativa; conditions: 1 h pre-incubation with DDC (0-2.0 mM); 1 U enzyme; Tris-HCl 50 mM pH 8.0, EDTA 0.1 mM
T1 construct: gene SODCC2

[2] = test system: T2, OsCSD1; experiment: SOD activity, NBT reduction assay (NADH/PMS), A560; assay type: biochemical, Oryza sativa; conditions: 1 h pre-incubation with DDC (0-2.0 mM); 1 U enzyme; Tris-HCl 50 mM pH 8.0, EDTA 0.1 mM
T2 construct: gene SODCC1

CCN(CC)C(=S)S [diethyldithiocarbamate]
IC50 [1]: 500 µM
IC50 [2]: 520 µM
